Species: Rattus norvegicus
Assay: Open TG-GATES - Regimen: Single
Format: toxicity, organism-based, Sprague-Dawley
Design: regimen Single, gender Male, age 6 weeks
Settings: in vivo, po, 0 mg/kg, route gavage, dose level Control; for APTT / Bas / Eos / Fbg / Hb / Ht / Lym / MCH / MCHC / MCV / Mono / Neu / PT / Plat / RBC / Ret / WBC: tissue Blood; for KIDNEY_L / KIDNEY_R / KIDNEY_TOTAL: tissue Kidney; for LIVER: tissue Liver; for ALP / ALT / AST / BUN / CRE / Ca / Cl / DBIL / GLC / IP / K / LDH / Na / PL / RALB / TBIL / TC / TG / TP / gamma-GTP: tissue Plasma

Work on `COc1cc([C@@H]2c3cc4c(cc3[C@@H](O[C@@H]3O[C@@H]5CO[C@@H](C)O[C@H]5[C@H](O)[C@H]3O)[C@H]3COC(=O)[C@H]23)OCO4)cc(OC)c1O` [ETOPOSIDE] yielded a TERMINAL_BW (3 h) of 199.4 g, an APTT (3 h) of 17.1 s and a Bas (3 h) of 0%. For the same compound, the Eos (3 h) was 1.2%, the Fbg (3 h) was 192.2 mg/dL and the Hb (3 h) was 13.3 g/dL. For the same compound, the Ht (3 h) was 39.3%, the Lym (3 h) was 74.8% and the MCH (3 h) was 22.4 pg. The MCHC (3 h) was 33.8%, the MCV (3 h) was 66.2 fL and the Mono (3 h) was 8%. It also gave a Neu (3 h) of 15.8%, a PT (3 h) of 12.2 s and a Plat (3 h) of 113.5 x10_4/uL. The RBC (3 h) was 594.2 x10_4/ul, the Ret (3 h) was 10.6% and the WBC (3 h) was 85 x10_2/uL. The KIDNEY_L (3 h) was 1 g, the KIDNEY_R (3 h) was 1 g and the KIDNEY_TOTAL (3 h) was 2 g. It also gave an LIVER (3 h) of 9.5 g, an ALP (3 h) of 857.8 IU/L and an ALT (3 h) of 32.8 IU/L. The AST (3 h) was 67.6 IU/L, the BUN (3 h) was 11.8 mg/dL and the CRE (3 h) was 0.5 mg/dL. For the same compound, the Ca (3 h) was 10.4 mg/dL, the Cl (3 h) was 105 meq/L and the DBIL (3 h) was 0.034 mg/dL. It also gave a GLC (3 h) of 197.6 mg/dL, an IP (3 h) of 9.1 mg/dL and a K (3 h) of 4.7 meq/L. The LDH (3 h) was 97.4 IU/L, the Na (3 h) was 141.6 meq/L and the PL (3 h) was 126.6 mg/dL. The RALB (3 h) was 3.4 g/dL, the TBIL (3 h) was 0.3 mg/dL and the TC (3 h) was 71.8 mg/dL. The TG (3 h) was 43 mg/dL, the TP (3 h) was 5.2 g/dL and the gamma-GTP (3 h) was 1 IU/L. For the same compound, the TERMINAL_BW (6 h) was 198 g, the APTT (6 h) was 16.6 s and the Bas (6 h) was 0%. It also gave an Eos (6 h) of 0.8%, a Fbg (6 h) of 201.6 mg/dL and a Hb (6 h) of 13.4 g/dL. For the same compound, the Ht (6 h) was 39.7%, the Lym (6 h) was 82.4% and the MCH (6 h) was 22 pg. For the same compound, the MCHC (6 h) was 33.7%, the MCV (6 h) was 65.3 fL and the Mono (6 h) was 5.6%. For the same compound, the Neu (6 h) was 11.2%, the PT (6 h) was 11.9 s and the Plat (6 h) was 117.8 x10_4/uL. For the same compound, the RBC (6 h) was 607.8 x10_4/ul, the Ret (6 h) was 9.8% and the WBC (6 h) was 93.7 x10_2/uL. The KIDNEY_L (6 h) was 0.9 g, the KIDNEY_R (6 h) was 0.9 g and the KIDNEY_TOTAL (6 h) was 1.8 g. For the same compound, the LIVER (6 h) was 9.1 g, the ALP (6 h) was 946.6 IU/L and the ALT (6 h) was 36 IU/L. For the same compound, the AST (6 h) was 65.2 IU/L, the BUN (6 h) was 11.6 mg/dL and the CRE (6 h) was 0.6 mg/dL. The Ca (6 h) was 10.6 mg/dL, the Cl (6 h) was 105 meq/L and the DBIL (6 h) was 0.016 mg/dL. The IP (6 h) was 10.5 mg/dL, the K (6 h) was 4.8 meq/L and the LDH (6 h) was 65.8 IU/L. It also gave a Na (6 h) of 142.4 meq/L, a PL (6 h) of 132.8 mg/dL and an RALB (6 h) of 3.3 g/dL. The TBIL (6 h) was 0.4 mg/dL, the TC (6 h) was 72.8 mg/dL and the TG (6 h) was 68.4 mg/dL. For the same compound, the TP (6 h) was 5.2 g/dL, the gamma-GTP (6 h) was 1 IU/L and the TERMINAL_BW (9 h) was 194.1 g. It also gave an APTT (9 h) of 16.9 s, a Bas (9 h) of 0% and an Eos (9 h) of 1.2%. It also gave a Fbg (9 h) of 206 mg/dL, a Hb (9 h) of 13.4 g/dL and a Ht (9 h) of 39.7%. The Lym (9 h) was 74.4%, the MCH (9 h) was 22.2 pg and the MCHC (9 h) was 33.9%. For the same compound, the MCV (9 h) was 65.6 fL, the Mono (9 h) was 9.8% and the Neu (9 h) was 15%. The PT (9 h) was 10.9 s, the Plat (9 h) was 117.1 x10_4/uL and the RBC (9 h) was 604.6 x10_4/ul. For the same compound, the Ret (9 h) was 9.1%, the WBC (9 h) was 71.2 x10_2/uL and the KIDNEY_L (9 h) was 0.9 g. It also gave a KIDNEY_R (9 h) of 0.9 g, a KIDNEY_TOTAL (9 h) of 1.9 g and an LIVER (9 h) of 8.4 g. It also gave an ALP (9 h) of 752.2 IU/L, an ALT (9 h) of 29.8 IU/L and an AST (9 h) of 58.2 IU/L. The BUN (9 h) was 10.4 mg/dL, the CRE (9 h) was 0.5 mg/dL and the Ca (9 h) was 10.6 mg/dL. The Cl (9 h) was 107.6 meq/L, the DBIL (9 h) was 0.022 mg/dL and the GLC (9 h) was 190.6 mg/dL. The IP (9 h) was 10.1 mg/dL, the K (9 h) was 4.6 meq/L and the LDH (9 h) was 59.2 IU/L. For the same compound, the Na (9 h) was 144.6 meq/L, the PL (9 h) was 127.4 mg/dL and the RALB (9 h) was 3.4 g/dL. It also gave a TBIL (9 h) of 0.4 mg/dL, a TC (9 h) of 71.6 mg/dL and a TG (9 h) of 28.4 mg/dL. The TP (9 h) was 5.4 g/dL, the gamma-GTP (9 h) was 0.8 IU/L and the TERMINAL_BW (24 h) was 215.6 g. It also gave an APTT (24 h) of 16.3 s, a Bas (24 h) of 0% and an Eos (24 h) of 1.2%. It also gave a Fbg (24 h) of 207.6 mg/dL, a Hb (24 h) of 13.1 g/dL and a Ht (24 h) of 38.4%. It also gave a Lym (24 h) of 78.2%, an MCH (24 h) of 22.7 pg and an MCHC (24 h) of 34.1%. It also gave an MCV (24 h) of 66.6 fL, a Mono (24 h) of 6% and a Neu (24 h) of 14.6%. For the same compound, the PT (24 h) was 11.6 s, the Plat (24 h) was 107.4 x10_4/uL and the RBC (24 h) was 578 x10_4/ul. For the same compound, the Ret (24 h) was 8.8%, the WBC (24 h) was 94.9 x10_2/uL and the KIDNEY_L (24 h) was 1 g. The KIDNEY_R (24 h) was 1 g, the KIDNEY_TOTAL (24 h) was 2 g and the LIVER (24 h) was 10.9 g. For the same compound, the ALP (24 h) was 866 IU/L, the ALT (24 h) was 38.2 IU/L and the AST (24 h) was 68.2 IU/L. For the same compound, the CRE (24 h) was 0.6 mg/dL, the Ca (24 h) was 10.9 mg/dL and the Cl (24 h) was 104.6 meq/L. For the same compound, the DBIL (24 h) was 0.03 mg/dL, the GLC (24 h) was 196.6 mg/dL and the IP (24 h) was 7.7 mg/dL. It also gave a K (24 h) of 4.8 meq/L, an LDH (24 h) of 85.2 IU/L and a Na (24 h) of 141.4 meq/L. It also gave a PL (24 h) of 161.6 mg/dL, an RALB (24 h) of 3.6 g/dL and a TBIL (24 h) of 0.3 mg/dL. For the same compound, the TC (24 h) was 92.2 mg/dL, the TG (24 h) was 84.4 mg/dL and the TP (24 h) was 5.6 g/dL. The gamma-GTP (24 h) was 1.6 IU/L.
